# Measurements from patent US8877754B2, “Compounds, pharmaceutical compositions and uses thereof” (Boehringer Ingelheim International GmbH, priority 2010, dated 2014).
# Biological target: T1, human ACC2 (Homo sapiens, UniProt O00763)
# T1 construct: made in house; host or cells: insect cells, baculoviral expression system
# Experiment: ACC2 assay, spectrophotometric 384 well assay (NADH-linked, coupled lactate dehydrogenase/pyruvate kinase)
# Assay type: biochemical
# Conditions: hACC2 construct lacking the 128 N-terminal amino acids; 25° C., 340 nm, 15 minutes
# Experimental: Spectrophotometric 384 Well Assay
# Malonyl CoA formation by acetyl CoA carboxylases is stoichometrically linked to the consumption of ATP. ACC2 activity is measured in a NADH-linked kinetic method measuring ADP generated during the ACC reaction using a coupled lactate dehydrogenase/pyruvate kinase reaction.
# For biological testing, a human ACC2 construct which lacks the 128 amino acids at the N-terminus for increased solubility (nt 385-6966 in Genbank entry AJ575592) is cloned. The protein is then expressed in insect cells using a baculoviral expression system. Protein purification is performed by anion exchange.
# All compounds are dissolved in dimethyl sulfoxide (DMSO) to a concentration of 10 mM.
# Assay reactions are then carried out in 384-well plates, with hACC2 in an appropriate dilution and at final assay concentrations (f.c.) of 100 mM Tris (pH 7.5), 10 mM trisodium citrate, 25 mM KHCO3, 10 mM MgCl2, 0.5 mg/mL BSA, 3.75 mM reduced L-glutathione, 15 U/mL lactate dehydrogenase, 0.5 mM phosphoenolpyruvate, 15 U/mL pyruvate kinase, compounds at different concentrations at final DMSO concentrations of 1%.
# The enzymatic reaction is then started by addition of a mixture of NADH, acetyl Coenzyme A (both 200 μM f.c.) and ATP (500 uM f.c.). The decrease of the optical density (slope S) is then determined at 25° C. at a wavelength of 340 nm over 15 minutes in a spectrophotometric reader.
# Each assay microtiter plate contains wells with vehicle instead of compound as controls for the non-inhibited enzyme (100% CTL; ‘HIGH’) and wells without acetyl-CoA as controls for non-specific NADH degradation (0% CTL; ‘LOW’). The slope S is used for calculation of % CTL=(S(compound)−S(‘LOW’))/(S(‘HIGH’)—S(‘LOW’))*100. Compounds will give values between 100% CTL (no inhibition) and 0% CTL (complete inhibition).
# For IC50 value determination, the sample slope in the presence of the test compound after subtraction of the low controls (S(compound)−S(‘LOW’)) are used.
# An IC50 value is derived from the compound slopes at different dosages after subtraction of the low controls (S(compound)−S(‘LOW’)) by non-linear regression curve fitting (equation y=(A+((B−A)/(1+((C/x)^D))))).
# T1 sequence (O00763 129-2458 limits assumed): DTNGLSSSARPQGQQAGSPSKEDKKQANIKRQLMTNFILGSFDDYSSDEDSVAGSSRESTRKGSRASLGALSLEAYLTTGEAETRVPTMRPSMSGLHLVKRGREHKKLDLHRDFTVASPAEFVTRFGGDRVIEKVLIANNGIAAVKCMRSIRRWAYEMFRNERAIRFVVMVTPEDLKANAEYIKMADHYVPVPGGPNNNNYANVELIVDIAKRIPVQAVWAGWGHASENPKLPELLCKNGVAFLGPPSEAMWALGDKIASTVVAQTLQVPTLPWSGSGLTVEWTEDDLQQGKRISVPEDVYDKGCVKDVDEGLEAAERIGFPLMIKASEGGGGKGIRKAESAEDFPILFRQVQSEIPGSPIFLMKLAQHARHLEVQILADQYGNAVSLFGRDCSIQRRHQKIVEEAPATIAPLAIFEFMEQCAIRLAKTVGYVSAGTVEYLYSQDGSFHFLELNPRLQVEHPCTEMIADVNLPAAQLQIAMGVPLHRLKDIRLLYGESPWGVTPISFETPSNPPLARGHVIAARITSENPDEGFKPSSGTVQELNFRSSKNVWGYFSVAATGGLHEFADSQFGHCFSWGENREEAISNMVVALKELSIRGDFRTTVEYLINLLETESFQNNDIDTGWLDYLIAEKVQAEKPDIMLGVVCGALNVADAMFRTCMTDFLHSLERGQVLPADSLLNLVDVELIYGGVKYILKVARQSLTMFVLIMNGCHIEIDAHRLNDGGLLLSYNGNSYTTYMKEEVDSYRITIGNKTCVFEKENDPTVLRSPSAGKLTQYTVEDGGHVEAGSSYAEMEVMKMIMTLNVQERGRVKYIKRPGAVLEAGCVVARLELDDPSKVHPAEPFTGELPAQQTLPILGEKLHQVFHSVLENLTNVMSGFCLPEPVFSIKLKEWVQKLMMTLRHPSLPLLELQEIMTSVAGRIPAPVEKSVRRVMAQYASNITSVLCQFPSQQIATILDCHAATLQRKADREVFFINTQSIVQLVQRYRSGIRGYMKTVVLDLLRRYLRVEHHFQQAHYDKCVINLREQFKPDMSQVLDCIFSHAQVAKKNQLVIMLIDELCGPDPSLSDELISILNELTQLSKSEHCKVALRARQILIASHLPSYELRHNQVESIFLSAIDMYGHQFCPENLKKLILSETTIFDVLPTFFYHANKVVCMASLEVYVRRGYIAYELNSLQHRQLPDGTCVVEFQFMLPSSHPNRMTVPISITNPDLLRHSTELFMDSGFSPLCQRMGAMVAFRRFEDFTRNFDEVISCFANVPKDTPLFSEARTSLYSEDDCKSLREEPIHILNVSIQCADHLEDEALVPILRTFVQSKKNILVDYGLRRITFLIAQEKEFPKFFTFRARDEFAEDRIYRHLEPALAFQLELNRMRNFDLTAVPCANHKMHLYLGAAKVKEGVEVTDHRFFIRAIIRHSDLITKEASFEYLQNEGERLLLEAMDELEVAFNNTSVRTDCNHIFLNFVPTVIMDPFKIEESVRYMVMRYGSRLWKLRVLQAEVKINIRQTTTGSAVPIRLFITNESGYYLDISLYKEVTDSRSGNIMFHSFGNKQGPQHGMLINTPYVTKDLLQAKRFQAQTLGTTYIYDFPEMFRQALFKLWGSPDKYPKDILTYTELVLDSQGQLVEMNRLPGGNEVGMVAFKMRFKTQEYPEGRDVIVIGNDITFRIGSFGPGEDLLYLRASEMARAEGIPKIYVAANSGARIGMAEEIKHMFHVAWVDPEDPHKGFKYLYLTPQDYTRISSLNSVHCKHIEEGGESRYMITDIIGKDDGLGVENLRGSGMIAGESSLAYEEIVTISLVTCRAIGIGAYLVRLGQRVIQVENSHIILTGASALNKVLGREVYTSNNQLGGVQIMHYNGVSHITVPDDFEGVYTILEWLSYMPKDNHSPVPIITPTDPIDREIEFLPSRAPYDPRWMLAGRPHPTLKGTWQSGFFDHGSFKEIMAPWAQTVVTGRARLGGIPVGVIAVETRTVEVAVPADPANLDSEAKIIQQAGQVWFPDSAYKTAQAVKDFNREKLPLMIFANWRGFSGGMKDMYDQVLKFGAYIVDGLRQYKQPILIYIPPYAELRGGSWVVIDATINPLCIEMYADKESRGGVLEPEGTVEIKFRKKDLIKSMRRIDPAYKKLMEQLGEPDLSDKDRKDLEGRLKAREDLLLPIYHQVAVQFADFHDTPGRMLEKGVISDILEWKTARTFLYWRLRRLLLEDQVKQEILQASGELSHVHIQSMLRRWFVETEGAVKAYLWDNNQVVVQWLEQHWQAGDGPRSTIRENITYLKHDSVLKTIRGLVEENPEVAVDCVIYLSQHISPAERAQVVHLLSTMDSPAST
row,SMILES,IC50
1,CCNC(=O)C(C)c1ccc(C#Cc2ccc(OC3CCCOC3)cc2)cc1 (stereo not drawn) [Example 5.11],870 nM
2,CCOc1ccc(C#Cc2ccc(C(C)C(=O)Nc3ncccn3)cc2)cc1 (stereo not drawn) [Example 6.15],290 nM
3,CCNC(=O)C(C)c1ccc(C#Cc2cnc(Oc3ccccc3)nc2)cc1 (stereo not drawn) [Example 3.3],920 nM
4,"CCNC(=O)C(C)c1ccc(C#Cc2ccc(OC)cc2)cc1 (stereo not drawn) [Example 4.1, N-Ethyl-2-[4-(4-methoxy-phenylethynyl)-phenyl]-propionamide]",260 nM
5,CCNC(=O)C(C)c1ccc(C#Cc2ccc(OC3CCC3)cc2)cc1 (stereo not drawn) [Example 7.3],110 nM
6,CCNC(=O)C(C)c1ccc(C#Cc2ccc(OCCCOC)cc2)cc1 (stereo not drawn) [Example 5.12],440 nM
7,CCNC(=O)C(C)c1ccc(C#Cc2ccnc(OCC)c2)cc1 (stereo not drawn) [Example 7.9],250 nM
8,CCNC(=O)C(C)c1ccc(C#Cc2ccc(OC3CC3)cc2)cc1 (stereo not drawn) [Example 7.49],60 nM
9,CCNC(=O)C(C)c1ccc(C#Cc2ccc(OC(C)C)nc2)cc1 (stereo not drawn) [Example 7.29],250 nM
10,CCNC(=O)C(C)c1ccc(C#Cc2ccc(OC(C)C)nn2)cc1 (stereo not drawn) [Example 7.36],3800 nM
11,CCOc1ccc(C#Cc2ccc(C(C)C(=O)Nc3ccnn3C)cc2)cc1 (stereo not drawn) [Example 6.10],190 nM
12,CCOc1ccc(C#Cc2ccc(CC(C)C(=O)NC3CC3)cc2)cc1 (stereo not drawn) [Example 1.25],730 nM
13,CCNC(=O)C(C)c1ccc(C#Cc2cnc(N3CCCCC3)nc2)cc1 (stereo not drawn) [Example 2.15],1500 nM
14,CCCOc1cc(C#Cc2ccc(C(C)C(=O)NCC)cc2)ccn1 (stereo not drawn) [Example 7.10],270 nM
15,"CCNC(=O)C(C)c1ccc(C#Cc2cnc(NC(C)C)nc2)cc1 (stereo not drawn) [Example 2.1, N-Ethyl-2-[4-(2-isopropylamino-pyrimidin-5-ylethynyl)-phenyl]-propionamide]",690 nM
16,CCOc1ccc(C#Cc2ccc(CC(=O)N(C)C)cc2)cc1 [Example 1.21],30000 nM
17,CCCOc1ccc(C#Cc2ccc(C(C)C(=O)NCC)cc2)c(C)c1 (stereo not drawn) [Example 7.42],90 nM
18,CCNC(=O)C(C)c1ccc(C#Cc2ccc(OC)nc2)cc1 (stereo not drawn) [Example 7.28],2900 nM
19,CCNC(=O)C(C)c1ccc(C#Cc2ccc(CNC(C)=O)cc2)cc1 (stereo not drawn) [Example 7.26],25500 nM
20,CCNC(=O)C(C)c1ccc(C#Cc2ccc(OCCC(F)(F)F)cc2)cc1 (stereo not drawn) [Example 5.14],110 nM
21,"CCNC(=O)C(C)c1ccc(C#Cc2ccc(OCc3ccco3)cc2)cc1 (stereo not drawn) [Example 5.1, N-Ethyl-2-{4-[4-(furan-2-ylmethoxy)-phenylethynyl]-phenyl}-propionamide]",1500 nM
22,CCNC(=O)C(C)c1ccc(C#Cc2cnc(NC(C)CC)nc2)cc1 (stereo not drawn) [Example 2.6],410 nM
23,"CCNC(=O)C(C)c1ccc(C#Cc2cnc(OCCF)nc2)cc1 (stereo not drawn) [Example 3.1, N-Ethyl-2-{4-[2-(2-fluoro-ethoxy)-pyrimidin-5-ylethynyl]-phenyl}-propionamide]",8400 nM
24,CCCOc1ccc(C#Cc2ccc(C(C)C(=O)NCC)cc2)cn1 (stereo not drawn) [Example 7.47],490 nM

row,SMILES,IC50
1,CCNC(=O)C(C)c1ccc(C#Cc2cnc(NCc3ccccc3)nc2)cc1 (stereo not drawn) [Example 2.13],240 nM
2,CCCOc1ccc(C#Cc2ccc(C(C)(C)C(N)=O)cc2)cc1 [Example 1.19],29200 nM
3,CCOc1ccc(C#Cc2ccc(C(C)C(=O)NCC3CCOC3)cc2)cc1 (stereo not drawn) [Example 6.25],12800 nM
4,CCOc1ccc(C#Cc2ccc(C(C)C(=O)Nc3ccnnc3)cc2)cc1 (stereo not drawn) [Example 6.12],130 nM
5,CCOc1ccc(C#Cc2ccc(CC(C)C(=O)NC)cc2)cc1 (stereo not drawn) [Example 1.24],2700 nM
6,CCNC(=O)C(C)c1ccc(C#Cc2cnn(-c3ccccc3)c2)cc1 (stereo not drawn) [Example 7.32],440 nM
7,CCNC(=O)C(C)c1ccc(C#Cc2ccc(COC)cc2)cc1 (stereo not drawn) [Example 7.27],10900 nM
8,CCNC(=O)C(C)c1ccc(C#Cc2cc(OCc3ccccc3)ncn2)cc1 (stereo not drawn) [Example 7.31],640 nM
9,CCNC(=O)C(C)c1ccc(C#Cc2cnc(OC3CCC3)nc2)cc1 (stereo not drawn) [Example 3.2],400 nM
10,CCNC(=O)C(C)c1ccc(C#Cc2ccnc(Oc3cncnc3)c2)cc1 (stereo not drawn) [Example 7.38],2900 nM
11,CCNC(=O)C(C)c1ccc(C#Cc2ccc(OCC(C)F)cc2)cc1 (stereo not drawn) [Example 5.19],250 nM
12,CCNC(=O)C(C)c1ccc(C#Cc2ccn(CC(C)C)c(=O)c2)cc1 (stereo not drawn) [Example 7.34],1100 nM
13,CCOc1ccc(C#Cc2ccc(C(C)C(=O)Nc3cccc(OC)n3)cc2)cc1 (stereo not drawn) [Example 6.4],410 nM
14,CCOc1ccc(C#Cc2ccc(C(C)C(=O)Nc3ccncc3)cc2)cc1 (stereo not drawn) [Example 6.13],400 nM
15,CCOc1ccc(C#Cc2ccc(C(C)C(=O)NCc3ncn[nH]3)cc2)cc1 (stereo not drawn) [Example 6.19],4500 nM
16,CCNC(=O)C(C)c1ccc(C#Cc2ccc3[nH]nnc3c2)cc1 (stereo not drawn) [Example 7.19],7700 nM
17,CCOc1ccc(C#Cc2ccc(C(C)C(=O)NCC(N)=O)cc2)cc1 (stereo not drawn) [Example 1.10],530 nM
18,CCOc1ccc(C#Cc2ccc(C(C)C(=O)NC)cc2)cc1 (stereo not drawn) [Example 1.3],220 nM
19,CCOc1ccc(C#Cc2ccc(C(C)C(=O)Nc3cncnc3)cc2)cc1 (stereo not drawn) [Example 6.5],60 nM
20,CCNC(=O)C(C)c1ccc(C#Cc2ccc(OCc3cnco3)cc2)cc1 (stereo not drawn) [Example 5.21],540 nM
21,CCOc1ccc(C#Cc2ccc(CC(=O)NC3CC3)cc2)cc1 [Example 1.23],1000 nM
22,CCNC(=O)C(C)c1ccc(C#Cc2cnc(N(C)C3CC3)nc2)cc1 (stereo not drawn) [Example 2.14],6800 nM
23,CCOc1ccc(C#Cc2ccc(C(C)C(=O)NC3CC3)cc2)cc1 (stereo not drawn) [Example 1.17],120 nM
24,CCNC(=O)C(C)c1ccc(C#Cc2cnc(N3CC4CCCC4C3)nc2)cc1 (stereo not drawn) [Example 2.11],270 nM

row,SMILES,IC50
1,"CCOc1ccc(C#Cc2ccc(CCC(=O)NC)cc2)cc1 [Example 1.1, 3-[4-(4-Ethoxy-phenylethynyl)-phenyl]-N-methyl-propionamide]",4300 nM
2,CCNC(=O)Cc1ccc(C#Cc2ccc(OCC)cc2)cc1 [Example 1.22],3600 nM
3,CCNC(=O)C(C)c1ccc(C#Cc2ccnc(Oc3ccccc3)c2)cc1 (stereo not drawn) [Example 7.45],390 nM
4,CCNC(=O)C(C)c1ccc(C#Cc2ccc(OCCC3CC3)cc2)cc1 (stereo not drawn) [Example 5.5],200 nM
5,CCOc1ccc(C#Cc2ccc(C(C)C(=O)NC(C)C)cc2)cc1 (stereo not drawn) [Example 1.20],13200 nM
6,CCNC(=O)C(C)c1ccc(C#Cc2ccc(OCC3CC3(F)F)cc2)cc1 (stereo not drawn) [Example 5.20],90 nM
7,CCNC(=O)C(C)c1ccc(C#Cc2ccc(OC(C)c3ccncc3)cc2)cc1 (stereo not drawn) [Example 5.8],1500 nM
8,CCNC(=O)C(C)c1ccc(C#Cc2ccc(OCC3CCOCC3)cc2)cc1 (stereo not drawn) [Example 5.13],890 nM
9,CCOc1ccc(C#Cc2ccc(C(C)C(N)=O)cc2)cc1 (stereo not drawn) [Example 1.9],220 nM
10,"CCOc1ccc(C#Cc2ccc(C(C)C(=O)Nc3cc(C)nn3C)cc2)cc1 (stereo not drawn) [Example 6.1, N-(2,5-Dimethyl-2H-pyrazol-3-yl)-2-[4-(4-ethoxy-phenylethynyl)-phenyl]-propionamide]",230 nM
11,CCNC(=O)C(C)c1ccc(C#Cc2ccc(N3CCCCC3=O)cc2)cc1 (stereo not drawn) [Example 7.15],4000 nM
12,CCNC(=O)C(C)c1ccc(C#Cc2ccc(OCCc3cn[nH]c3)cc2)cc1 (stereo not drawn) [Example 5.17],930 nM
13,CCOc1ccc(C#Cc2ccc(C(C)C(=O)Nc3ncco3)cc2)cc1 (stereo not drawn) [Example 6.7],3300 nM
14,CCOc1ccc(C#Cc2ccc(C(C)C(=O)NCC#N)cc2)cc1 (stereo not drawn) [Example 1.11],660 nM
15,CCNC(=O)C(C)c1ccc(C#Cc2ccc(C3CC3)cn2)cc1 (stereo not drawn) [Example 7.33],5400 nM
16,CCOc1ccc(C#Cc2ccc(C(C)C(=O)NCCOC)cc2)cc1 (stereo not drawn) [Example 1.12],9700 nM
17,CCNC(=O)C(C)c1ccc(C#Cc2cnc(OC(C)C)nc2)cc1 (stereo not drawn) [Example 3.4],460 nM
18,CCNC(=O)C(C)c1ccc(C#Cc2ccc(OC3CCCC3)cc2)cc1 (stereo not drawn) [Example 7.46],110 nM
19,CCNC(=O)C(C)c1ccc(C#Cc2cnn(Cc3ccccc3)c2)cc1 (stereo not drawn) [Example 7.12],1000 nM
20,CCNC(=O)C(C)c1ccc(C#Cc2cccc(OCc3ccccc3)c2)cc1 (stereo not drawn) [Example 7.11],380 nM
21,CCNC(=O)C(C)c1ccc(C#Cc2ccc(OCCn3ccnc3)cc2)cc1 (stereo not drawn) [Example 5.18],1900 nM
22,CCOc1ccc(C#Cc2ccc(C(C)C(=O)Nc3ccnn3CC)cc2)cc1 (stereo not drawn) [Example 6.11],840 nM
23,CCCOc1ccc(C#Cc2ccc(C(C)C(=O)NCC)cc2)c(Cl)c1 (stereo not drawn) [Example 7.40],140 nM
24,CCOc1ccc(C#Cc2ccc(C(C)C(=O)Nc3nncs3)cc2)cc1 (stereo not drawn) [Example 6.23],23100 nM
